The values below come from patent publication US5998438A, “5-cyclo indole compounds” (Allelix Biopharmaceuticals, Inc., priority 1997, dated 1999).

Read-outs that look alike come from different tables or passages of the source.

The test deals with T1, 5-HT1D-like receptor (Oryctolagus cuniculus, UniProt P49144).
T1 construct: Ring segments of the vein (4-5 mm in length) were cut and the endothelium gently removed; from tissue; host or cells: saphenous vein rings (endothelium removed) of male New Zealand White rabbits
T1 sequence (P49144 whole entry): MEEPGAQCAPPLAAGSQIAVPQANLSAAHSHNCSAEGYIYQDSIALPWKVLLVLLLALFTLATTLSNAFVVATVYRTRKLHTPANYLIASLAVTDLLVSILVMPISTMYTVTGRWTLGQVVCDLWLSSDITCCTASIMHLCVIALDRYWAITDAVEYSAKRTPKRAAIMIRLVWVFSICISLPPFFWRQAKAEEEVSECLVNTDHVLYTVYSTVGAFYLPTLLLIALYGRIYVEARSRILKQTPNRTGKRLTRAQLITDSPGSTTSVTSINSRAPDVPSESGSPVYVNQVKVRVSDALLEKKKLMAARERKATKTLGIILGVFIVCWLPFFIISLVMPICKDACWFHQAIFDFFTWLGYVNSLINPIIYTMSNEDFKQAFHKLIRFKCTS
The experiment in a line: Agonist assay: contraction of rabbit isolated saphenous vein (5-HT1D-like receptor agonist activity). Further details: species or system rabbit (male New Zealand White).

Where [1] appears, read: rabbit isolated saphenous vein ring segments, concentration causing 50% of the maximum contraction effected by the compound, with prazosin, idazoxan and indomethacin, 37° C., pH 7.4, read-out: EC50.

Take `CN(C)CCc1c[nH]c2ccc(C3=CCCCC3)cc12` [Example 9a, 5-(Cyclohex-1-en-1-yl)-3-[2-(N,N-dimethylamino)ethyl]-1H-indole]: the midpoint of the response, the EC50, lay at 960 nM.

For the compound `CN(C)CCc1c[nH]c2ccc(C3CCCCO3)cc12` (centres unmarked) [Example 9b, 3-[2-(N,N-Dimethylamino)ethyl]-5-(tetrahydropyran-2-yl)-1H-indole], the midpoint of the response, the EC50, lay at 160 nM.

For the compound `C1=C(c2ccc3[nH]cc(CCN4CCCC4)c3c2)CCN(Cc2ccccc2)C1` [Example 15, 5-(1-Aza-1-benzylcyclohex-3-en-4-yl)-3-(2-pyrrolidinylethyl)-1H-indole], under setting [1], the EC50 is 220 nM.

Compound `CN(C)CCc1c[nH]c2ccc(C3CCCCC3)cc12` [Example 17a, 5-Cyclohexyl-3-[2-(N,N-dimethylamino)ethyl]-1H-indole] gave an EC50 of 250 nM.

As for `CN1CCC[C@H]1Cc1c[nH]c2ccc(C3CCN(C(=O)OC(C)(C)C)CC3)cc12` [Example 17d, (S)-5-(1-Aza-1-tert-butoxycarbonylcyclohex-4-yl)-3-[(N-methylpyrrolidin-2-yl)methyl]-1H-indole], the EC50 under setting [1] stood at 750 nM.

Broadly, the EC50 is the midpoint of the concentration-response curve.
